Target: PD-L1
Test: FACS binding, rat
Settings: half-maximal binding
Procedure: All samples were run on a […] FACSCalibur and Mean Fluorescence Intensity of PD-L1 binding data as a function of anti-PD-L1 antibody concentration was analyzed using Tree Star, Inc. FlowJo® software; EC50, values (Ab concentration associated with half-maximal binding) were calculated using Kaleidagraph. In addition, equilibrium binding studies were performed to define accurate affinities (Kds) for YW24355570 binding to human and mouse PD-L1 expressed on 293 cells (Example 3B).

## YW243.55.S70: affinity-matured phage anti-PD-L1 antibody derived from YW243.55, selected as the primary candidate; full length IgG1
  EC50: 0.8 nM
